ChEMBL document CHEMBL4387764, “Structure-activity relationship study of thiazolyl-hydroxamate derivatives as selective histone deacetylase 6 inhibitors” (Bioorg Med Chem, 2019)

What was measured:
in vitro [1] = settings: human, liver microsomes
in vitro [2] = settings: human, liver microsomes; remark: listed apart in the source
in vitro [3] = settings: CD-1, mouse, liver microsomes
in vitro [4] = settings: CD-1, mouse, liver microsomes; remark: listed apart in the source
in vitro [5] = settings: CD-1, mouse, liver microsomes; remark: listed apart in the source
in vitro [6] = settings: human, liver microsomes; remark: listed apart in the source
in vitro [7] = settings: CD-1, mouse, liver microsomes; remark: listed apart in the source
in vitro [8] = settings: human, liver microsomes; remark: listed apart in the source
in vitro [9] = settings: human, liver microsomes; remark: listed apart in the source
in vitro [10] = settings: human, liver microsomes; remark: listed apart in the source
in vitro [11] = settings: CD-1, mouse, liver microsomes; remark: listed apart in the source
in vitro [12] = settings: CD-1, mouse, liver microsomes; remark: listed apart in the source

In the case of `O=C(CCc1csc(/C=C/c2ccc(F)cc2)n1)NO`, the remaining at 0 h, 1 µM (in vitro [1]) is reported as 106%, the remaining at 0.25 h, 1 µM (in vitro [2]) is reported as 103% and the remaining at 0.5 h, 1 µM (in vitro [3]) is reported as 95.8%. It also gave a remaining at 0 h, 1 µM (in vitro [4]) of 107%, a remaining at 0.5 h, 1 µM (in vitro [5]) of 25.2% and a remaining at 0.5 h, 1 µM (in vitro [6]) of 112%. For the same compound, the remaining at 0 h, 1 µM (in vitro [7]) was 100%, the remaining at 5 min, 1 µM (in vitro [8]) was 105% and the remaining at 0 h, 1 µM (in vitro [9]) was 100%. For the same compound, the remaining at 0.5 h, 1 µM (in vitro [10]) was 94.6%, the remaining at 0.25 h, 1 µM (in vitro [11]) was 68.6% and the remaining at 5 min, 1 µM (in vitro [12]) was 99.8%.
